Drawing on ChEMBL document CHEMBL1201862, “PubChem BioAssay data set” (2004), this text covers IC50, EC50 and AC50 for three compounds.

A short description of experiment [1]: CCR5-tropic HIV-1 fusion blockers – cell-based, CCR5-tropic Env, dose response (AID 2279). Type of experiment: functional.
For a further experiment, the target named is T1, Protein RecA (Mycobacterium tuberculosis, UniProt P9WHJ3).
T1 sequence (P9WHJ3 whole entry): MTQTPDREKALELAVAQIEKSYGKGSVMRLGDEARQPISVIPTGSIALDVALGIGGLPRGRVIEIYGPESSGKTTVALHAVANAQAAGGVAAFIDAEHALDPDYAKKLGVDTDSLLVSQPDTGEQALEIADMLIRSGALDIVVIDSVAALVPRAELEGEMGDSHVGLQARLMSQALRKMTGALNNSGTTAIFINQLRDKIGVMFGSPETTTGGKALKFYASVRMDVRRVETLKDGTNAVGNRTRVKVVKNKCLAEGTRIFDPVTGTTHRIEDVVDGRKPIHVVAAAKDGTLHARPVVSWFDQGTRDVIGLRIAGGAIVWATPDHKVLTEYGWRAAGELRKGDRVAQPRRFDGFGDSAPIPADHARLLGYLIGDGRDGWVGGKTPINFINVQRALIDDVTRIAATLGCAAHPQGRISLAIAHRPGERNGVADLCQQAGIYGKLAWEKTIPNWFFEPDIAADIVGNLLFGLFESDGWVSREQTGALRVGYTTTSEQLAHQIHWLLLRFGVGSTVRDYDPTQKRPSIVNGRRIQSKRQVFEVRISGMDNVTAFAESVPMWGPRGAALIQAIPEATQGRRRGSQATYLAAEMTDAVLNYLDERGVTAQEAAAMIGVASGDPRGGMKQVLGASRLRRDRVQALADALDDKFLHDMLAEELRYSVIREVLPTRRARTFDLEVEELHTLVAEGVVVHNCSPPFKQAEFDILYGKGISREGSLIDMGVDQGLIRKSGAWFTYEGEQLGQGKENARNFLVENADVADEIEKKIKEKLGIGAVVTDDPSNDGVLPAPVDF
The experiment can be described thus: Fluorescence Cell-Free Homogeneous Dose Retest to Identify Inhibitors of RecA-Intein Splicing Activity. [Related pubchem assays (depositor defined):AID2097, AID2223, AID489010, AID492950]. Type of experiment: functional.

A further experiment addresses T2, Aminopeptidase N (Plasmodium falciparum FcB1/Columbia, UniProt O96935).
T2 sequence (O96935 whole entry): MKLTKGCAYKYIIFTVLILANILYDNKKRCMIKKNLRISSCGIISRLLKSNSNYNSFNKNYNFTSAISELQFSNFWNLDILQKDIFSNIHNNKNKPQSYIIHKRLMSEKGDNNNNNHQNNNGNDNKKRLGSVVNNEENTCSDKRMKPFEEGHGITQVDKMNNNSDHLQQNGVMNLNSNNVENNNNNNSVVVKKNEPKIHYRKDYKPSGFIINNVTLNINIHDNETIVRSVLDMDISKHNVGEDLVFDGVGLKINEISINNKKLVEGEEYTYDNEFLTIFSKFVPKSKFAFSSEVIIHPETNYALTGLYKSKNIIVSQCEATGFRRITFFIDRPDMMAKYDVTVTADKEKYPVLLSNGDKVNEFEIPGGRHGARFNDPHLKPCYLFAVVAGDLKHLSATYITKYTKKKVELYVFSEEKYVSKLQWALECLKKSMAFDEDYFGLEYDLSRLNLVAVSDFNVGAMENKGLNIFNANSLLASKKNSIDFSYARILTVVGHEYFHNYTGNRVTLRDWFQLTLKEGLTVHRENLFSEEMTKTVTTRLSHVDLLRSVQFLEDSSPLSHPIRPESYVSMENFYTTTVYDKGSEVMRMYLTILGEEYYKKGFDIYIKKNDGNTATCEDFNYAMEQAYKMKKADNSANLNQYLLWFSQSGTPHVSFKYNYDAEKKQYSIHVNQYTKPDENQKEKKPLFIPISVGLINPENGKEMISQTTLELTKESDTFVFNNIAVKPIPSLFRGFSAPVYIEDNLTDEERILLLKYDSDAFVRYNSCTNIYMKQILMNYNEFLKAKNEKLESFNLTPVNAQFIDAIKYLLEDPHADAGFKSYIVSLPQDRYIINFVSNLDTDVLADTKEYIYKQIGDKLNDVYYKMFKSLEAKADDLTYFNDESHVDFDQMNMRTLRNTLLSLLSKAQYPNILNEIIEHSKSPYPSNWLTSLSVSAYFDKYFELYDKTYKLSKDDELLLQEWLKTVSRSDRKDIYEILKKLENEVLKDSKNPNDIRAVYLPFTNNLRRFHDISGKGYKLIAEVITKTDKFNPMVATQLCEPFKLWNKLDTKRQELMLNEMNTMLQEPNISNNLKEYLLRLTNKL
The experiment can be described thus: malaria alanyl aminopeptidase activity blockers – biochemical, fluorogenic H-Leu-NHMec substrate, 1536-well (AID 1445). More on the design: species or system Plasmodium falciparum 3D7, 3D7.

Experiment [2] has as its target T3, Replicative DNA helicase DnaB (Mycobacterium tuberculosis, UniProt P9WMR3).
T3 sequence (P9WMR3 whole entry): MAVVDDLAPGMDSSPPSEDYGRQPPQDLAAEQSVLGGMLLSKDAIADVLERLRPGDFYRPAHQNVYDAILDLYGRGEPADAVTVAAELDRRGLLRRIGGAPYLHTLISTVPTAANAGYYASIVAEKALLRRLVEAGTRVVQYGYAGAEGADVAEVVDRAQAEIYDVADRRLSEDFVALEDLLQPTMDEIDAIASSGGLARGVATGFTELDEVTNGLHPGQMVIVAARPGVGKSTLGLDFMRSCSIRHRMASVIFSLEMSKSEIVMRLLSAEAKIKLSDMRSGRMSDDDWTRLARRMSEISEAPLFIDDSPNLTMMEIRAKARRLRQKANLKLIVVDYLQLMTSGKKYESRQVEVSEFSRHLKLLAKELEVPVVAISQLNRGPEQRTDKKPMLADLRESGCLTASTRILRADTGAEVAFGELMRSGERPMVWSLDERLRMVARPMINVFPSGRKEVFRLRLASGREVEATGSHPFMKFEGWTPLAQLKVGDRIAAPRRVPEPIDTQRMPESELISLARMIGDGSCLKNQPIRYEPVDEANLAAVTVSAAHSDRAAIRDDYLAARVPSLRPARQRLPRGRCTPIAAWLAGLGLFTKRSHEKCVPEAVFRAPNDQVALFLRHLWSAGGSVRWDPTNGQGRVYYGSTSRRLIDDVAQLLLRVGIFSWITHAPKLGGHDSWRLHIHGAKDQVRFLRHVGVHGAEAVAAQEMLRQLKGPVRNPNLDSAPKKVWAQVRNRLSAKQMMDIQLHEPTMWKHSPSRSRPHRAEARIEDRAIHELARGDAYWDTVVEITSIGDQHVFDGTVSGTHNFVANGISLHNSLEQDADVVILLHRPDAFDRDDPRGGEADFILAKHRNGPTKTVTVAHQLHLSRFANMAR
The experiment can be described thus: DnaB intein splicing inhibitors, dose response, biochemical, cell-free fluorescence (AID 449749). Type of experiment: functional.

The nature of experiment [3]: antiviral protection against BTV-induced cell death – arbovirus, BSR cells, confirmation (AID 1250).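 Also: protection from viral cytopathic effect measured as cell viability by ATP luminescence.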 In kind it is functional.
Experiment [4] deals with Bifunctional protein GlmU (Mycobacterium tuberculosis, UniProt P9WMN3). The experiment can be described thus: Inhibitors of Mycobacterial Glucosamine-1-phosphate acetyl transferase (GlmU). Secondary screen. More on the design: species or system Mycobacterium tuberculosis H37Rv.
Chain of Bifunctional protein GlmU (P9WMN3 whole entry): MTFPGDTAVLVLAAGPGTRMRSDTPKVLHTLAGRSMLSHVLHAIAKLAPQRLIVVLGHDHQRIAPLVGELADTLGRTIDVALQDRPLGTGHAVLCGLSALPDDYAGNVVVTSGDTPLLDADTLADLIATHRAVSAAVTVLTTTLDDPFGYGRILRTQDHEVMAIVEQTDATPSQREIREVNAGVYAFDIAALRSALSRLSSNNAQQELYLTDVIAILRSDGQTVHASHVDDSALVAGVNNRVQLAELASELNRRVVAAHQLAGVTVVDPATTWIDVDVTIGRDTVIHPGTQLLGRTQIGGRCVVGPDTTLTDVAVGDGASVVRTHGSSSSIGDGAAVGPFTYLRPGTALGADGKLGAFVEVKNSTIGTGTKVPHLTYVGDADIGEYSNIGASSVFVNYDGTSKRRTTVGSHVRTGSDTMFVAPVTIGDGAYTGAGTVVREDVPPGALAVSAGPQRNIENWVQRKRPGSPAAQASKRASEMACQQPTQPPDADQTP
The next experiment concerns the target T4, Estrogen receptor (Homo sapiens, UniProt P03372).
T4 sequence (P03372 whole entry): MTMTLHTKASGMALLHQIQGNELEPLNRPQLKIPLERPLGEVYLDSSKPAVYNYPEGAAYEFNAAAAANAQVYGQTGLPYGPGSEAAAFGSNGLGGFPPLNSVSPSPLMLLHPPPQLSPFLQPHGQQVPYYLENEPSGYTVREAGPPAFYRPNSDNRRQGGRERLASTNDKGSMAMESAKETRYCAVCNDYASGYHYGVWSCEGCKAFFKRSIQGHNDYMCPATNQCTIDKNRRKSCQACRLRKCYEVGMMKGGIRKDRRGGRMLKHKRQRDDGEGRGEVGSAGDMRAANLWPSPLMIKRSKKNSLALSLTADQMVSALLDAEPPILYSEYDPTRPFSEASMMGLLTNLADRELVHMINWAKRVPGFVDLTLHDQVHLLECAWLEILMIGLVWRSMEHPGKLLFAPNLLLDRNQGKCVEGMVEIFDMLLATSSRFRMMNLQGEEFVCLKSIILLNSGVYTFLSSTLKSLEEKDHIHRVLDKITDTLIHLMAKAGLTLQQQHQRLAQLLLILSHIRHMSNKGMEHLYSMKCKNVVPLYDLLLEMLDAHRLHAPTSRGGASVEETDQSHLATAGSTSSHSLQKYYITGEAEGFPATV
The experiment can be described thus: blockers of SRC-3 recruitment to ERα – biochemical, ELISA, streptavidin-HRP readout, orthogonal assay, confirmation (AID 1079).

A short description of experiment [5]: Counterscreen for IDE inhibitors: Luminescence-based cell-based high throughput dose response assay to identify compounds that are cytotoxic to HEK cells. [Related pubchem assays: 434962 (Primary screen (IDE inhibitors in singlicate)), 449730 (Counterscreen (Cytotoxicity in triplicate)), 435028 (Confirmation (IDE inhibitors in triplicate)) …. Type of experiment: functional. As to conditions: HEK293.

Experiment [6] deals with T5, Corticotropin-releasing factor receptor 2/Corticotropin-releasing factor-binding protein (Homo sapiens, UniProt P24387+Q13324).
T5 sequence (Q13324 whole entry): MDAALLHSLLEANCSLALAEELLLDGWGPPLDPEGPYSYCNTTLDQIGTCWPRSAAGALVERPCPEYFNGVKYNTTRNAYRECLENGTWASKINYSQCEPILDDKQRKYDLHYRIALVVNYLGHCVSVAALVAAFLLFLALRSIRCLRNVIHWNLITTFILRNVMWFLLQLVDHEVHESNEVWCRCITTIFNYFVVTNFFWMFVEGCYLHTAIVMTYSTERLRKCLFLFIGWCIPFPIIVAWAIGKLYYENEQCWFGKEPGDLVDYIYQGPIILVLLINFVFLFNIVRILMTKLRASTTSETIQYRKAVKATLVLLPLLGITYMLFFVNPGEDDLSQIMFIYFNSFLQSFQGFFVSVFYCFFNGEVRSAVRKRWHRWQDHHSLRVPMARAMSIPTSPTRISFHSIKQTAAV
T5 sequence (P24387 whole entry): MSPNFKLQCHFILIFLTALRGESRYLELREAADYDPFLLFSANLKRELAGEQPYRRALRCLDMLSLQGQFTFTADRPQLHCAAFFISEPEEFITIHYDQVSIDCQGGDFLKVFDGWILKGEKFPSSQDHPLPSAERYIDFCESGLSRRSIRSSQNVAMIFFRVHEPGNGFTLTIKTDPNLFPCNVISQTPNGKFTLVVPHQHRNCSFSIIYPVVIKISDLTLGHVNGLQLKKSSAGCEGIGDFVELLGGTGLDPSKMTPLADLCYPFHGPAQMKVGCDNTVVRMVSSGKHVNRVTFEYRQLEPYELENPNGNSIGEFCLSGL
The experiment can be described thus: activators of CRF receptor 2 with binding protein – uHTS hits, confirmation (AID 602473). In kind it is functional. As to conditions: read-out: EC50_Mean.

In the next experiment the target is T6, Insulin-degrading enzyme (Homo sapiens, UniProt P14735).
T6 sequence (P14735 whole entry): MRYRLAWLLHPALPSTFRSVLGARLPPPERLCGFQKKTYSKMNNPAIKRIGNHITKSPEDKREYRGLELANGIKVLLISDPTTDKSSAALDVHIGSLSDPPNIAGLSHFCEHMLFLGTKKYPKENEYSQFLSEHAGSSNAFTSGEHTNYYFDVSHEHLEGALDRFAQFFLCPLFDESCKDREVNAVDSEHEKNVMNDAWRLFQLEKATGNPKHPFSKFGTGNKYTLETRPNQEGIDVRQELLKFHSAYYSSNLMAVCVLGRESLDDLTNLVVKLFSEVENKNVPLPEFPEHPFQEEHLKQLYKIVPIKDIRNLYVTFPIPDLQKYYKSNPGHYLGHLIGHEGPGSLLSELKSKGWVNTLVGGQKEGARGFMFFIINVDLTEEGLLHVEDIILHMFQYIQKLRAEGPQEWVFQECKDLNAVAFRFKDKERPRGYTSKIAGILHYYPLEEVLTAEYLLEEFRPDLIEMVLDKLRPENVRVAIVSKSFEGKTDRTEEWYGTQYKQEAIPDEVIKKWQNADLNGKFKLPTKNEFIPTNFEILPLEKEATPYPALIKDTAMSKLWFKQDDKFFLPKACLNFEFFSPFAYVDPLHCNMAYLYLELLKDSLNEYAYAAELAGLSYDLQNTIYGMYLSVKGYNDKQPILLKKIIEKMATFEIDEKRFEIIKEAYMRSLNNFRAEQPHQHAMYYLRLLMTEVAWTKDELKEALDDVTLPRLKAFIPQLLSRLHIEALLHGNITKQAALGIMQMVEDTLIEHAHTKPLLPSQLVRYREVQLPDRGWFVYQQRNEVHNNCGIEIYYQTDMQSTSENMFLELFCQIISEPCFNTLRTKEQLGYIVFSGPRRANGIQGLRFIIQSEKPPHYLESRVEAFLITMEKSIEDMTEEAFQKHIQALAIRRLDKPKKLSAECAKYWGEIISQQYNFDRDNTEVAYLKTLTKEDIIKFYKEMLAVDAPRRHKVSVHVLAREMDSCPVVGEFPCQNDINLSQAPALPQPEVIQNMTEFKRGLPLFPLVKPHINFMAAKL
The experiment can be described thus: Dose Response: Fluorescence polarization-based cell-based high throughput dose response assay for inhibitors of insulin-degrading enzyme (IDE). [Related pubchem assays: 434962 (Primary screen (IDE inhibitors in singlicate)), 449730 (Counterscreen (Cytotoxicity in triplicate)), 435028 (Confirmation (IDE inhibitors in triplicate)), 434984 (Summary …. Type of experiment: functional.

Active and inactive are the calls of the source. Bounds are passed on as bounds.

Regarding `N#C/C(=C\c1ccc(O)c([N+](=O)[O-])c1)c1nc2ccccc2s1`, the IC50 (usually the midpoint of a concentration-inhibition curve) in [1] is 3.41 µM (active); at Aminopeptidase N it was 33.9 µM (active); in experiment [3] it was > 100 µM (active); in [4] it was 71.8 µM (active). The EC50 at Protein RecA is 4.58 µM (active). Moreover, the AC50 (commonly the concentration at which the activity in the assay is half-maximal) in experiment [2] was 7.01 µM (active).

`N#Cc1cccc(N2CCN(C(=O)CCCCCn3c(=S)[nH]c4ccccc4c3=O)CC2)c1`: the IC50 at Estrogen receptor is 0.09 µM (not active).

Consider `CCN(CC)c1ccc(/C=C2\CCC(/C=N/NC(=O)c3ccc(=O)n(C)c3)=C2N2CCOCC2)cc1`, for which the IC50 was 16.6 µM (not active) in [5] and 12.5 µM (not active) against Insulin-degrading enzyme. Moreover, the EC50 in [6] is 5.19 µM (active).
